Columns and labels:
Assay type in all cases: in vivo, mouse
male KK-Ay mice [1] = assay: Intestine permeability (plasma FD-4 after oral FITC-dextran); conditions: 100 mg/kg oral, vs vehicle group
Description: The administration medium (0.5% methylcellulose; vehicle) or compound 1 (100 mg/kg) was orally administered to male KK-Ay mice (11 weeks old) that had been fasted from 10 o'clock the day before, and FITC-dextran (FD-4) (300 mg/kg) was orally administered 1 hr later. Blood was collected from the tail vein 1 hr and 2 hr after FD-4 administration, and the plasma FD-4 concentration was measured.

male C57BL/6J mice = assay: Oral glucose tolerance test (OGTT); conditions: 30 mg/kg oral
Description: The administration medium (0.5% methylcellulose; vehicle) or compound 1 (30 mg/kg) was orally administered to male C57BL/6J mice (7 weeks old) that had been fasted from 17 o'clock the day before, and 2 g/kg of glucose was orally administered by gavage 1 hr later. Blood was collected from the tail vein before administration, and 15, 30, 60, 120 and 180 min after administration, and the blood glucose level was measured.
The blood glucose level after glucose loading remained low in the compound 1 administration group from 30 min after loading and thereafter. The results of the area under curve (ΔAUC) of the blood glucose level profile calculated with the 0-minute value as the standard are shown in FIG. 2.

male KK-Ay mice [2] = assay: Insulin tolerance test (ITT); conditions: 30 mg/kg oral, insulin 0.5 U/kg s.c. 1 hr later, profile and ΔAUC vs vehicle group
Description: The administration medium (0.5% methylcellulose; vehicle) or compound 1 (30 mg/kg) was orally administered to male KK-Ay mice (7 to 12 weeks old) that had been fasted from 17 o'clock the day before, and insulin (0.5 U/kg) was subcutaneously administered 1 hr later. Blood was collected from the tail vein before administration, and 15, 30, 60, 120 and 180 min after administration, and the blood glucose level was measured. The blood glucose level was also measured for compounds 2 to 6 by a similar method. The results of the area under curve (ΔAUC) of the blood glucose level profile calculated with the 0-minute value as the standard are shown in FIG. 3(b).

FGF21 = FGF21 secretion promoting action (plasma FGF21 concentration); conditions: 30 mg/kg by gavage, C57BL/6J mice, portal vein, 120 min after administration, vs vehicle group
Description: The administration medium (0.5% methylcellulose; vehicle) or compound 1 (30 mg/kg) was administered by gavage to male C57BL/6J mice (8 weeks old) that had been under fasting treatment for 6 hr. Blood was collected from the portal vein before administration and 120 min after administration, and the plasma FGF21 concentration was measured.

acetyl-L-carnitine = assay: Anti-stress, neuroprotective action (plasma acetyl-L-carnitine after restraint stress); conditions: 30 mg/kg oral after 3 hr restraint stress, C57BL/6J mice, 120 min after administration, vs vehicle group
Text: Male C57BL/6J mice (9-week-old) that had been under fasting treatment overnight were housed in a restraint stress cage for mice, and allowed to stand for 3 hr. […] Acetyl-L-carnitine is an endogenous metabolite known to have an anti-stress and neuroprotective action (e.g., Nasca C et al., “L-acetylcarnitine causes rapid antidepressant effects through the epigenetic induction of mGlu2 receptors”, Proc. Natl. Acad. Sci. USA, 2013 Mar. 19; 110 (12): 4804-4809; and Kazak F et al., “Neuroprotective effects of acetyl-1-carnitine on lipopolysaccharide-induced neuroinflammation in mice: Involvement of brain-derived neurotrophic factor”, Neuroscience Letters, 2017 Sep. 29; 658:32-36, which are incorporated herein by reference in their entireties).

[3] = test system: ornithine/citrulline ratio; assay: Anti-fatigue action (plasma ornithine/citrulline ratio); conditions: 30 mg/kg by gavage, C57BL/6J mice, portal vein, 120 min after administration, vs vehicle group
Description: The administration medium (0.5% methylcellulose; vehicle) or compound 1 (30 mg/kg) was administered by gavage to male C57BL/6J mice (7 weeks old) that had been under fasting treatment overnight. Blood was collected from the portal vein 120 min after administration, and the plasma ornithine and citrulline concentrations were measured. The ornithine/citrulline ratio in plasma is known as a biomarker that increases during fatigue such as chronic fatigue syndrome and the like (e.g., Yamano E et al., “Index markers of chronic fatigue syndrome with dysfunction of TCA and urea cycles”, Scientific Reports, 2016 Oct. 11; 6:34990, doi: 10.1038/srep34990, which is incorporated herein by reference in its entirety).

## LIVTQTMKGL (Designed peptide) [compound 1]
Male KK-Ay mice [1]; 1 hr after oral FD-4 (300 mg/kg)
  blood FD-4 concentration: suppression of an increase in the blood FD-4 concentration was observed
Male KK-Ay mice [1]; 2 hr after oral FD-4 (300 mg/kg)
  blood FD-4 concentration: suppression of an increase in the blood FD-4 concentration was observed
Male C57BL/6J mice; 0-minute value as the standard, vs vehicle group
  area under curve (ΔAUC) of the blood glucose level profile, OGTT: low value as compared with the vehicle group
Male C57BL/6J mice; 2 g/kg glucose 1 hr later, from 30 min after loading
  blood glucose level after glucose loading: remained low
Male KK-Ay mice [2]
  blood glucose level after insulin (insulin sensitivity improving effect), ITT: significant decrease in blood glucose
FGF21
  blood FGF21 concentration: increase in the blood FGF21 concentration was confirmed
acetyl-L-carnitine
  blood acetyl-L-carnitine concentration: increase in the blood acetyl-L-carnitine concentration was observed
[3]
  blood ornithine/citrulline ratio: decreased

Source: US20250312407A1, “PEPTIDE AND USE THEREOF” (AJINOMOTO CO., INC., priority 2019, published 2025)
